In paper PMC12264794, “Homoleptic complexes of titanium(IV) fused with O^N^O Schiff base derivatives: design, BSA–DNA interaction, molecular docking, DFT and cytotoxicity” (RSC Advances, 2025):
Like-named read-outs stand apart in the source and are kept apart here.

Assays:
[1] = test system: CT-DNA; test: Agarose gel electrophoresis, CT-DNA cleavage; format: biochemical, calf; settings: complex at 3, 1.5 and 0.75 mM
Description: The interaction and effectiveness of the Ti(IV) complex on CT-DNA were investigated using the agarose gel electrophoresis technique. This was accomplished by incubating the reaction mixtures separately, each of which contained 20 μL of CT-DNA and 20 μL of titanium complexes in PBS buffer solution, at 310 K for one hour. The tracking […] dye (1 μL) and all of the prepared solutions (5 μL) were then combined and applied to the wells of a 1% agarose gel containing 1 mM ethidium bromide that was prepared well in advance. Then the reaction mixture of complexes and CT-DNA was loaded in the wells separately using 0.25% […] dye. The electrophoresis mobility experiment was then carried out in an EDTA-PBS buffer for 60 minutes at a constant electrical voltage of 100 V until the dye reached 50% of the gel distribution area. In order to evaluate the degree of DNA binding capacity of the Ti(IV) complexes, the resultant bands were finally captured on a camera using the AXYGEN digital camera Gel Documentation System under UV light.[49–51]
There are two types of cleavage of nucleic acid chains: enzymatic and non-enzymatic. Either the oxidative cleavage of deoxyribose residues or the hydrolysis of phosphodiester links, known as hydrolytic cleavage, can result in non-enzymatic cleavage. Strong Lewis acidic metal complexes with transition metals are the main source of hydrolytic cleavage. The hydrolysis of the phosphate backbone of the nucleic acid is facilitated by a metal–phosphate intermediate. In order to understand the catalytic mechanisms of natural nucleases and to develop medications that target nucleic acids, it is crucial to design and synthesize metal complexes that can hydrolytically cleave the phosphodiester link. Agarose gel electrophoresis was used to test the capacity of the complex to cleave CT-DNA.

[2] = biological target: T1, BSA (Bos taurus, UniProt P02769); test: BSA fluorescence quenching titration; format: binding, bovine; settings: for KBSA, Stern–Volmer quenching constant: BSA 3 × 10^−6 M, PBS pH 7.4; for Kq, quenching rate constant: τ0 = 1 × 10^−8
T1 construct: purchased Himedia Chemicals
T1 sequence (P02769 25-607): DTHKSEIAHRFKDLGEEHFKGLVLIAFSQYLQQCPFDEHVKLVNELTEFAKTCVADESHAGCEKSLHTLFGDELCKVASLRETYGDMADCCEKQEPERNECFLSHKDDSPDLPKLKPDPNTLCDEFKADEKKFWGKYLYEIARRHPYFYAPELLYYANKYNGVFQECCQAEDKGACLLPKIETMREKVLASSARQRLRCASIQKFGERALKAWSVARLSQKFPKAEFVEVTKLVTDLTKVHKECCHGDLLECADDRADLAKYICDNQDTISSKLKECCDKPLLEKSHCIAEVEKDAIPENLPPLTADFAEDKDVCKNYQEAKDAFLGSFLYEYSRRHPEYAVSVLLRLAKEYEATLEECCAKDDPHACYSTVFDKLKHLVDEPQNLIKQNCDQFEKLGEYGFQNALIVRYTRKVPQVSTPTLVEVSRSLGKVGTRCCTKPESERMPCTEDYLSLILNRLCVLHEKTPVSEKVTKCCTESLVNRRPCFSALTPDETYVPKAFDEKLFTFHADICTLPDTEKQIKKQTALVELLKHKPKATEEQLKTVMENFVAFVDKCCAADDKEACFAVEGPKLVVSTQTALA
Description: BSA stock solution (5 mM) was prepared in 5 mM phosphate buffer (pH 7.4) and then kept at 2–6 °C. The binding mechanism of the Ti(IV) complexes with BSA was established using fluorescence titration at 200–500 nm. Metal complexes with BSA were quenched by tracking changes in the fluorescence intensity at a certain excitation wavelength of 285 nm and emission value at 345 nm, respectively.[52] Identical excitation and emission scan rates and slit widths were employed in all investigations. In order to titrate against different metal complex concentrations ranging from 0 to 80 μM, a constant protein concentration of BSA was used. Similarly, the synchronous fluorescence spectra were also acquired by titrating different metal complex concentrations ranging from 0 to 80 μM while maintaining a constant BSA at the specified excitation wavelengths, λ = 15 nm and 60 nm.[53,54]
Ti(IV) complexes of (1 × 10^−5 M) concentration were gradually added, ranging from 0 to 72 μM to bind with BSA (3 × 10^−6 M) of fixed concentration in PBS buffer of pH 7.4. […] This phenomenon might be caused by modifications to the secondary or tertiary structures of BSA, which could have an impact on the tryptophan residues of the BSA microenvironment. Typically, the Stern–Volmer eqn (8) can be used to characterize fluorescence quenching.8 I0/I = 1+KBSA[Q] = 1 + kqτ0[Q]where τ0 is the lifetime of the tryptophan in BSA, which is determined to be 1 × 10^−8, kq is the quenching constant, I0 is the fluorescence intensity of BSA in the absence of complex and I denotes the fluorescence intensities of BSA in the presence of a complex of concentration [Q]. The quenching rate constant, dynamic quenching constant, average lifetime without quencher, and quencher concentration of the biomolecule are represented by the values of kq, KBSA, τ0 and [Q], respectively.
The binding constant (Kb) and the number of binding sites (n) for the static quenching interaction can be determined using the Scatchard eqn (9),9 Log(I0 − I/I) = log K + n log[Q]where I0 and I are the fluorescence intensities of BSA with and without quenchers (complexes). Fig. 7(c), Table 3 and ESI Fig. S70 ^† display the double logarithmic plot of log[I0 − I/I] vs. log[complex].

[3] = test system: HeLa cells; test: MTT cytotoxicity assay, HeLa; format: cell-based, human; settings: for IC50: 48 h of drug exposure; for Selectivity: HeLa cell lines
Description: The in vitro cytotoxicity of the Ti(IV) complexes under investigation was investigated using MTT, a micro-titration colorimetric method. The in vitro cytotoxicity test of the Ti(IV) complexes was evaluated against the cervical cancer cell line (HeLa), human breast cancer cell line (MCF-7) and human kidney normal cell line (HEK-293).[65,66]
In the cytotoxicity assay, tetrazolium salt 3-[4,5-dimethylthiazol-2-yl]-2,5diphenyl tetrazolium bromide (MTT) was utilized to assess cell viability. The MTT powder was diluted in Dulbecco's PBS (stock solution of MTT (5 mg mL^−1)) to attain a final concentration of 0.5 mg mL^−1 and a […] was used to filter and sterilize the stock solution, which was then kept at 2–6 °C. In metabolically active cells, MTT is reduced to produce an insoluble purple formazan product. In the exponential phase, cells were taken out of the stored cultures after the 48-hour recovery period, following seeding onto 96-well plates at a density of 1 × 10^4 cells per well in 100 μL medium at 37 °C in a 95% air and 5% CO2 environment, and the cells were incubated for 12 hours. Cell lines were treated for 48 hours with Ti(IV) complexes at varying doses (9.5–300 μM) and cis-platin as a control (apart from normal cells). After 48 hours of incubation at 37 °C, the medium was removed and 100 μL of DMSO was added to dissolve the […], and the culture plates were shaken for five minutes. A Bio-Rad xMARK™ multi-well plate reader was used to measure the absorbance of each well at 570 nm. Using eqn (2), the percentage viability, which represents the relative viability of the treated cells in comparison to the control cells, was calculated, and the IC50 values and standard deviation of the substances under investigation were calculated in triplicate.2 [drawing 2]
An MTT assay was used to examine the cytotoxic effectiveness of the produced Ti(IV) complexes. After 48 hours of incubation, the cytotoxicity of Ti-1-IS to Ti-6-IBr was evaluated against human cancer cell lines, such as breast carcinoma (MCF7) and cervical cancer (HeLa), as well as the non-cancerous human embryonic kidney (HEK) cell line, by using the widely used therapeutic drug, cis-platin, as a positive control by following the standard protocol.

[4] = Scatchard plot, 298 K, no site probe

Structure (SMILES)	KBSA, Stern–Volmer quenching constant [2]	n, number of binding sites (BSA) ([2]; Scatchard plot, 298 K)	Kb binding constant (BSA) [2, 4]	Kq, quenching rate constant [2]	Kb binding constant (BSA) [2]	KBSA [2]	DNA cleavage activity [1]	IC50 [3]	Selectivity [3]
[O-]C(=NN=Cc1ccccc1[O-])c1ccncc1.[O-]C(=NN=Cc1ccccc1[O-])c1ccncc1.[Ti+4] [Ti-1-IS]	175000 M⁻¹	1.31	400 M⁻¹	1.75e+13 M⁻¹ s⁻¹	–	–	less cleavage activity	61.76 ± 0.1 µM	–
[O-]C(=NN=Cc1cc(F)ccc1[O-])c1ccncc1.[O-]C(=NN=Cc1cc(F)ccc1[O-])c1ccncc1.[Ti+4] [Ti-4-IF]	197000 M⁻¹	1.60	110 M⁻¹	1.97e+13 M⁻¹ s⁻¹	–	–	higher DNA cleavage even at the lowest concentration	47.3 ± 0.5 µM	–
[O-]C(=NN=Cc1c([O-])ccc2ccccc12)c1ccncc1.[O-]C(=NN=Cc1c([O-])ccc2ccccc12)c1ccncc1.[Ti+4] [Ti-2-IN]	105000 M⁻¹	1.26	470 M⁻¹	1.05e+13 M⁻¹ s⁻¹	–	–	less cleavage activity	74.04 ± 0.5 µM	–
COc1cccc(C=NN=C([O-])c2ccncc2)c1[O-].COc1cccc(C=NN=C([O-])c2ccncc2)c1[O-].[Ti+4] [Ti-3-IO]	277000 M⁻¹	1.42	360 M⁻¹	2.77e+13 M⁻¹ s⁻¹	–	277000 M⁻¹	higher DNA cleavage even at the lowest concentration	27.2 ± 1.1 µM	> 29

Now from value to compound, other results behind:

KBSA, Stern–Volmer quenching constant [2]	n, number of binding sites (BSA) ([2]; Scatchard plot, 298 K)	Kb binding constant (BSA) [2, 4]	Kq, quenching rate constant [2]	Kb binding constant (BSA) [2]	KBSA [2]	Structure (SMILES)	DNA cleavage activity [1]	IC50 [3]	Selectivity [3]
85000 M⁻¹	1.35	140 M⁻¹	8.5e+12 M⁻¹ s⁻¹	–	–	Brc1ccc2c(c1)C=NN=C(c1ccncc1)[O][Ti]1([O]C(c3ccncc3)=NN=Cc3cc(Br)ccc3[O]1)[O]2 (stereo not shown) [Ti-6-IBr]	comparatively higher DNA binding cleavage in higher concentration	78.64 ± 0.2 µM	–
112000 M⁻¹	1.07	650 M⁻¹	1.12e+13 M⁻¹ s⁻¹	650 M⁻¹	–	[O-]C(=NN=Cc1cc(Cl)ccc1[O-])c1ccncc1.[O-]C(=NN=Cc1cc(Cl)ccc1[O-])c1ccncc1.[Ti+4] [Ti-5-ICl]	comparatively higher DNA binding cleavage in higher concentration	24.2 ± 0.7 µM	> 26
